# Measurements taken from patent US20260294906A1, “TREATING PSORIASIS USING A SMALL MOLECULE INHIBITOR OF TUMOR NECROSIS FACTOR ALPHA” (SANOFI, priority 2023, published 2026).
# “Also recorded” adds a separate entry of the source.
# How the values were obtained:
# Assay type in all cases: in vivo, human
# [1] = test system: participants with mild to moderate psoriasis; assay: Adverse events and safety in the clinical study
# Procedure: A double-blind, randomized, placebo-controlled phase 1 study was carried out in participants with mild to moderate psoriasis. Study participants were randomized to 200 mg twice a day (BID) of Compound 1 or placebo in 2:1 ratio (approximately 24 in the treatment group and 12 in the placebo group). The study comprised an up to 4-week screening period, and a 4-week treatment period with Compound 1 or placebo. An end-of-study visit was carried out 10±3 days after the last investigational medicinal product (IMP) administration.
# (§1) The primary objective of the study was to assess the safety, tolerability, and clinical efficacy of Compound 1 at 200 mg BID via oral administration. Also evaluated was the clinical effect of Compound 1 as compared to placebo on the percent change in PASI and TLS scores from baseline to week 2 and week 4. The percent change in PASI score from baseline to week 4 was determined. TLS score was also assessed over the same time period. Also assessed was the effect of Compound 1 on biomarkers of psoriasis. Blood samples collected at predetermined time points were processed to quantify serum levels of biomarkers, including interleukin (IL)-17A, IL-17F, and IL-22 by high sensitivity methods. IL-17A, IL-17F and IL-22 are the main cytokines released by Th17 cells. Plasma levels of Compound 1 were measured to assess pharmacokinetics in the study population.
# (§2) Two study interventions were used, Compound 1 and placebo. The Compound 1 intervention comprised 4× tablets of Compound 1 50 mg twice daily, i.e. 200 mg BID, for 4 weeks. The placebo intervention was 4× tablets of placebo twice daily for 4 weeks. Tablets were administered orally.
# Adverse events (AEs) were reported by the participant or observed by the Investigator, and were defined as follows: • An AE is any untoward medical occurrence in a patient or clinical study participant, temporally associated with the use of study intervention, whether or not considered related to the study intervention. • NOTE: An AE can therefore be any unfavorable and unintended sign (including an abnormal laboratory finding), symptom, or disease (new or exacerbated) temporally associated with the use of study intervention.
# Events meeting the AE definition: • Any abnormal laboratory test results (hematology, clinical chemistry, or urinalysis) or other safety assessments (e.g., ECG, radiological scans, vital signs measurements), including those that worsen from baseline, considered clinically significant in the medical and scientific judgment of the Investigator (i.e., not related to progression of underlying disease), e.g.: • Symptomatic and/or • Requiring either corrective treatment or consultation, and/or • Leading to IMP discontinuation or modification of dosing, and/or • Fulfilling a seriousness criterion, and/or • Defined as an AESI • Exacerbation of a chronic or intermittent pre-existing condition including either an increase in frequency and/or intensity of the condition. • New condition detected or diagnosed after study intervention administration even though it may have been present before the start of the study. • Signs, symptoms, or the clinical sequelae of a suspected drug-drug interaction. • Signs, symptoms, or the clinical sequelae of a suspected overdose of either study intervention or a concomitant medication. • Lack of efficacy or failure of expected pharmacological action per se will not be reported as an AE or SAE. Such instances will be captured in the efficacy assessments. However, the signs, symptoms, and/or clinical sequelae resulting from lack of efficacy will be reported as AE or SAE if they fulfill the definition of an AE or SAE.
# Complications that occur during hospitalization are AEs. If a complication prolongs hospitalization or fulfills any other serious criteria, the event is serious. […]
# IL-22 = assay: Serum levels of biomarker IL-22 (single-molecule array ELISA)
# Procedure: as §1, §2
# Blood samples were processed for analysis of IL-17A, IL-17F and IL-22 in serum samples by high sensitivity methods. Samples were collected according to the schedule of activity described above.
# As indicated above, peripheral blood samples collected at predetermined time points were processed to quantify serum levels of biomarkers of psoriasis including IL-17A, IL-17F, and IL-22. Levels of IL-17A and IL-17F were quantified using a single molecule counting sandwich immunoassay (SMCxPro™, Millipore—see also Hwang et al., Methods (2019) 158:69-76). Levels of IL-22 were quantified using a single-molecule array ELISA (SIMOA™, Myriad RBM—see also Rissin et al., Anal Chem (2011) 83(6):2279-2285). Statistical analysis was based on geometric mean ratio to baseline; a two-sample t-test at significance alpha level of 5% was used for calculation of the p-values.
# [2] = Plasma levels of Compound 1 in the study population (pharmacokinetics); conditions: 200 mg BID oral, fed
# Procedure: as §1, §2
# The interventions were used in two arms of the study. Arm 1 was the experimental arm and it involved participants receiving 200 mg of Compound BID for 4 weeks under fed conditions. […]
# [3] = 200 mg BID, N = 26, placebo 33.3%
smiles,measurement,setting,value
"CN1C(=O)c2cccc(OC(F)F)c2[C@H]2C[C@@H]1c1nc3ccc(-c4cnc(C5(N)CCC5)nc4)cc3n12 [Compound 1, (7R,14R)-11-[2-(1-aminocyclobutyl)pyrimidin-5-yl]-1-(difluoromethoxy)-6-methyl-6,7-dihydro-7,14-methanobenzimidazo[1,2-b][2,5]benzodiazocin-5(14H)-one]",safety and tolerability (in words),[1]; 200 mg BID over 28 days,safe and well-tolerated
same,"serious AEs (SAEs), severe TEAEs or AEs of special interest (AESI)","[1]; 200 mg BID, 4 weeks","no serious AEs (SAEs), severe TEAEs or AEs of special interest (AESI); also recorded: no serious AEs, severe treatment emergent AEs, or AESI being reported; also recorded: No serious or severe adverse events were observed"
same,Number of TEAEs leading to permanent study intervention discontinuation,"[1]; 200 mg BID, 2 participants",2
same,drop-out due to CPK increase,"[1]; 200 mg BID, Day 8, linked to increased physical activity",another participant dropped out on Day 8 due to CPK increase (grade 2) assessed by the investigator as non-drug related
same,drop-out due to nausea,"[1]; 200 mg BID, Day 15",one participant dropped out on Day 15 due to nausea assessed by the investigator as drug related
same,Number of participants with Dysgeusia (PT),"[1]; 200 mg BID, N = 26, placebo 0",16
same,% of participants with Dysgeusia (PT),"[1]; 200 mg BID, N = 26, placebo 0%",61.5%
same,Number of participants with gastrointestinal disorders (SOC),"[1]; 200 mg BID, N = 26, placebo 2",8
same,Number of participants with headache (PT),"[1]; 200 mg BID, N = 26, placebo 4",8
same,Number of participants with infections and infestations (SOC),"[1]; 200 mg BID, N = 26, placebo 4",4
same,Number of participants with nervous systems disorders (SOC),"[1]; 200 mg BID, N = 26, placebo 4",19
same,% of participants with gastrointestinal disorders (SOC),"[1]; 200 mg BID, N = 26, placebo 16.7%",30.8%
same,% of participants with headache (PT),[1]; [3],30.8%
same,% of participants with infections and infestations (SOC),[1]; [3],15.4%
same,% of participants with nervous systems disorders (SOC),[1]; [3],73.1%
same,severity of TEAEs,"[1]; 200 mg BID, NCI-CTCAE grades",All TEAEs were of grade 1 or grade 2 severity and participants fully recovered
same,time for CPK value to return to baseline level,"[1]; 200 mg BID, one participant, CPK increase grade 2",7 days
same,% of participants with treatment-emergent adverse events (TEAEs),"[1]; 26 participants, 200 mg BID, 4 weeks, placebo 58.3%",92.3%
same,Number of participants with treatment-emergent adverse events (TEAEs),"[1]; out of 26 participants, 200 mg BID, 4 weeks, placebo 7 of 12",24
same,"PCSA for vital signs, ECG and laboratory parameters (in words)",[1]; scattered across placebo and Compound 1 groups,"no safety concerns based on vital signs, ECG or laboratory results; also recorded: All were considered not clinically meaningful by the investigator"
same,Serum level of IL-22 (in words),IL-22; after treatment for 4 weeks,substantially decreased
same,"Serum level of IL-22, geometric mean (geometric SE)",IL-22; baseline (before treatment),4.13 (1.19) pg/mL
same,"Serum level of IL-22, geometric mean (geometric SE)","IL-22; week 2, 200 mg BID",2.86 (1.18) pg/mL
same,"Serum level of IL-22, geometric mean (geometric SE)","IL-22; week 4, 200 mg BID",2.49 (1.15) pg/mL
same,Mean pre-dose plasma levels / steady state (in words),[2]; Day 8 through Day 29,steady state was achieved within the first week and maintained until the end of the treatment
same,Mean pre-dose and post-dose plasma concentrations (in words),[2]; compared with previous study in healthy participants,consistent with analogous values observed at the same dose in a previous study in healthy participants; also recorded: consistent with pharmacokinetic data previously obtained in healthy participants
